Experimental data from patent publication US20090275583A1, “ANTIVIRAL COMPOUNDS AND USE THEREOF” (Myriad Genetics, Incorporated, priority 2006, published 2009).
Like-named read-outs stand apart in the source and are kept apart here.

Columns and labels:
[1] = test system: HIV-1NL4-3; experiment: P4-MAGI assay; type: cell-based
Procedure, shortened: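 Cytotoxicity (TC50, 50% growth inhibition) came from WST-1 in uninfected cells. For antiviral activity, compound at rising concentrations was added immediately after HIV-1NL4-3 inoculation (MOI 1, DEAE-Dextran) of P4 cells, CD4+ HeLa cells expressing β-galactosidase from a minimal HIV-1 LTR upon infection.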

[2] = test system: HIV-1 laboratory strain, NL4-3; experiment: MT-4 cytoprotection assay; type: cell-based
Procedure, shortened: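 MT-4 cells mock- or batch-infected with NL4-3 (MOI 0.0005) for 2 h, washed, then cultured 4 days with increasing compound concentrations. Viability read by WST-1 tetrazolium reduction: cytoprotection in infected cells, toxicity in mock-infected cells.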

[3] = Human immunodeficiency virus 1, 24 h, P4 cells, 24 hour incubation, β-galactosidase expression, read-out: P4-MAGI IC50
[4] = Human immunodeficiency virus 1, text statement, less than about 100 nm, read-out: P4-MAGI assay IC50
[5] = Human immunodeficiency virus 1, NL43, MT4, 96 h, MT-4 cells, four days incubation, WST-1 readout, read-out: MT4 EC50
[6] = Human immunodeficiency virus 1, NL43, less than about 100 nm, read-out: MT-4 assay EC50 (concentration of compound that reduces the virus induced cytopathic effect by 50%)

| Structure (SMILES) | IC50 [1, 3] | IC50 [1, 4] | EC50 [2, 5] | EC50 [2, 6] |
| --- | --- | --- | --- | --- |
| C=C(C)[C@@H]1CC[C@]2(C(=O)NCc3cccc(C(=O)NCc4ccc(C(=O)OC)s4)c3)CC[C@]3(C)C(CCC4[C@@]5(C)CC[C@H](O)C(C)(C)C5CC[C@]43C)C12 (some centres unmarked) [Example 29] | 37.9 nM | < 100 nM | 18 nM | < 100 nM |
| C=C(C)[C@@H]1CC[C@]2(C(=O)NCCc3cccc(C(=O)Nc4cccc(C(=O)O)c4)c3)CC[C@]3(C)C(CCC4[C@@]5(C)CC[C@H](O)C(C)(C)C5CC[C@]43C)C12 (some centres unmarked) [Example 60] | 31 nM | < 100 nM | 248 nM |  |
| C=C(C)[C@@H]1CC[C@]2(C(=O)NCCc3cccc(C(=O)NCc4ccc(C(=O)N(C)CCc5ccccn5)cc4)c3)CC[C@]3(C)C(CCC4[C@@]5(C)CC[C@H](O)C(C)(C)C5CC[C@]43C)C12 (some centres unmarked) [Example 137] | 10.8 nM | < 100 nM | 10.5 nM | < 100 nM |
| CC(=O)[C@@H]1CC[C@]2(C(=O)NCCc3cccc(C(=O)NCc4ccc(C(=O)O)cc4)c3)CC[C@]3(C)C(CCC4[C@@]5(C)CC[C@H](O)C(C)(C)C5CC[C@]43C)C12 (some centres unmarked) [Example 264] | 29.5 nM |  | 161 nM |  |
| C=C(C)[C@@H]1CC[C@]2(C(=O)NCCc3cccc(C(=O)NCc4ccc(C(=O)N[C@H](CC(=O)O)C(=O)O)cn4)c3)CC[C@]3(C)C(CCC4[C@@]5(C)CC[C@H](O)C(C)(C)C5CC[C@]43C)C12 (some centres unmarked) [Example 222] | 65.7 nM |  | 727 nM |  |
| C=C(C)[C@@H]1CC[C@]2(C(=O)NCc3cccc(C(=O)NCc4cc(C(=O)O)ccc4F)c3)CC[C@]3(C)C(CCC4[C@@]5(C)CC[C@H](O)C(C)(C)C5CC[C@]43C)C12 (some centres unmarked) [Example 26] | 78.6 nM | < 100 nM | 200 nM |  |
| C=C(C)[C@@H]1CC[C@]2(C(=O)NCc3cc(C(=O)NCc4cccc(C(=O)OC)c4)ccc3F)CC[C@]3(C)C(CCC4[C@@]5(C)CC[C@H](O)C(C)(C)C5CC[C@]43C)C12 (some centres unmarked) [Example 102] | 22 nM | < 100 nM | 0.6 nM | < 100 nM |
| C=C(C)[C@@H]1CC[C@]2(C(=O)NCCc3cccc(C(=O)NCc4ccc(C(=O)N[C@H](Cc5ccc(O)cc5)C(=O)O)cc4)c3)CC[C@]3(C)C(CCC4[C@@]5(C)CC[C@H](O)C(C)(C)C5CC[C@]43C)C12 (some centres unmarked) [Example 164] | 7 nM |  | 7 nM |  |
| C=C(C)[C@@H]1CC[C@]2(C(=O)NCCc3cccc(C(=O)Nc4cc(C(=O)O)ccc4N)c3)CC[C@]3(C)C(CCC4[C@@]5(C)CC[C@H](O)C(C)(C)C5CC[C@]43C)C12 (some centres unmarked) [Example 61] | 65 nM | < 100 nM | 2300 nM |  |
| C=C(C)[C@@H]1CC[C@]2(C(=O)NCCc3cccc(S(=O)(=O)NCc4ccc(C(=O)OC)cc4)c3)CC[C@]3(C)C(CCC4[C@@]5(C)CC[C@H](O)C(C)(C)C5CC[C@]43C)C12 (some centres unmarked) [Example 250] | 106 nM |  | 594 nM |  |
| C=C(C)[C@@H]1CC[C@]2(C(=O)NCc3cccc(C(=O)NCc4ccc(OCCCN5CCOCC5)c(C(=O)OC)c4)c3)CC[C@]3(C)C(CCC4[C@@]5(C)CC[C@H](O)C(C)(C)C5CC[C@]43C)C12 (some centres unmarked) [Example 123] | 18.9 nM | < 100 nM | 13 nM | < 100 nM |
| C=C(C)[C@@H]1CC[C@]2(C(=O)NCCc3cccc(C(=O)NCc4ccc(C(=O)NCCN(C)C)cc4)c3)CC[C@]3(C)C(CCC4[C@@]5(C)CC[C@H](O)C(C)(C)C5CC[C@]43C)C12 (some centres unmarked) [Example 135] | 70 nM | < 100 nM | 533 nM |  |
| C=C(C)[C@@H]1CC[C@]2(C(=O)NCc3cccc(C(=O)NCc4cc(C(=O)OC)ccc4F)c3)CC[C@]3(C)C(CCC4[C@@]5(C)CC[C@H](O)C(C)(C)C5CC[C@]43C)C12 (some centres unmarked) [Example 24] | 186 nM |  | > 10000 nM |  |
| C=C(C)[C@@H]1CC[C@]2(C(=O)NCCc3cccc(C(=O)NCc4cccnc4C(=O)OC)c3)CC[C@]3(C)C(CCC4[C@@]5(C)CC[C@H](O)C(C)(C)C5CC[C@]43C)C12 (some centres unmarked) [Example 229] | 7 nM |  | 44 nM |  |
| C=C(C)[C@@H]1CC[C@]2(C(=O)NCCc3cccc(C(=O)NCc4ccccc4)c3)CC[C@]3(C)C(CCC4[C@@]5(C)CC[C@H](O)C(C)(C)C5CC[C@]43C)C12 (some centres unmarked) [Example 199] | 53.2 nM |  | 297 nM |  |
| C=C(C)[C@@H]1CC[C@]2(C(=O)NCc3cc(C(=O)NCCc4ccc(C(=O)O)cc4)ccc3F)CC[C@]3(C)C(CCC4[C@@]5(C)CC[C@H](O)C(C)(C)C5CC[C@]43C)C12 (some centres unmarked) [Example 95] | 11.2 nM | < 100 nM | 1.5 nM | < 100 nM |
| C=C(C)[C@@H]1CC[C@]2(C(=O)NCc3cccc(C(=O)NCC(C)(C)c4cccc(C(=O)O)c4)c3)CC[C@]3(C)C(CCC4[C@@]5(C)CC[C@H](O)C(C)(C)C5CC[C@]43C)C12 (some centres unmarked) [Example 39] | 40.2 nM | < 100 nM | 5.3 nM | < 100 nM |
